Patent US9357779B2 (priority 2010, dated 2016)

Tests used:
Plasmopara viticola = assay: Plasmopara test (grapevine)/protective; assay type: in vivo; settings: protective, active compound concentration 500 ppm, evaluation 6 days after inoculation
Method: Plasmopara Test (Grapevine)/Protective
To produce a suitable preparation of active compound, 1 part by weight of active compound is mixed with the stated amounts of solvent and emulsifier, and the concentrate is diluted with water to the desired concentration.
To test for protective activity, young plants are sprayed with the preparation of active compound at the stated application rate. After the spray coating has dried on, the plants are inoculated with an aqueous spore suspension of Plasmopara viticola and then remain in an incubation cabin at about 20° C. and 100% relative atmospheric humidity for 1 day. The plants are then placed in a greenhouse at about 21° C. and about 90% atmospheric humidity for 4 days. The plants are then moistened and placed in an incubation cabin for 1 day.
Evaluation is carried out 6 days after the inoculation. 0% means an efficacy which corresponds to that of the control, whereas an efficacy of 100% means that no infection is observed.

Phytophthora infestans = assay type: in vivo; settings: tomato plants, protective, active compound concentration 500 ppm, evaluation 7 days after inoculation
[1] = acidic range, pH 2.7, 0.1% aqueous formic acid/acetonitrile
Method: (§1) Calibration was carried out using unbranched alkan-2-ones (having from 3 to 16 carbon atoms) with known log P values (the log P values were determined by the retention times using linear interpolation between two successive alkanones).

[2] = pH 2.7, log P [a], acidic range, pH 2.7, 0.1% aqueous formic acid/acetonitrile

Method for physchem: as §1

Row | SMILES | efficacy (Plasmopara viticola) | efficacy (Phytophthora infestans) | log P [a] [1] | chromatographic logP (physchem; [2]) | chromatographic logP (physchem; pH 7.8)
1 | O=C(/C=C/c1csc(C2CCN(C(=O)Cn3nc(C(F)F)cc3C(F)F)CC2)n1)c1ccccc1I [Compound I-33] | 89% | 95% | 3.65^[a]; |  | 
2 | O=C(/C=C/c1csc(C2CCN(C(=O)Cn3nc(C(F)F)cc3C(F)F)CC2)n1)C1CCCC1 [Compound I-49] | 79% | 90% | 3.52^[a] |  | 
3 | O=C(CC1CCCCC1)c1csc(C2CCN(C(=O)Nc3cc(C(F)F)ccc3C(F)F)CC2)n1 [Compound I-30] | 85% | 95% | 4.3^[a]; |  | 
4 | O=C(/C=C/c1csc(C2CCN(C(=O)Cn3nc(C(F)F)cc3C(F)F)CC2)n1)c1cccc(F)c1 [Compound I-52] | 94% | 98% | 3.35^[a] |  | 
5 | C#CCOc1ccccc1C(=O)/C=C/c1csc(C2CCN(C(=O)Cn3nc(C(F)F)cc3C(F)F)CC2)n1 [Compound I-55] | 100% | 98% | 3.28^[a] |  | 
6 | O=C(/C=C/c1csc(C2CCN(C(=O)Cn3nc(C(F)F)cc3C(F)F)CC2)n1)c1c(F)cccc1Cl [Compound I-36] | 96% | 100% | 3.54^[a]; |  | 
7 | O=C(/C=C/c1csc(C2CCN(C(=O)Cn3nc(C(F)F)cc3C(F)F)CC2)n1)c1ccccc1Br [Compound I-29] | 95% | 100% | 3.51^[a]; |  | 
8 | Cc1ccc(Cl)cc1NC(=O)N1CCC(c2nc(C(=O)CC3CCCCC3)cs2)CC1 [Compound I-25, N-(5-Chloro-2-methylphenyl)-4-[4-(cyclohexylacetyl)-1,3-thiazol-2-yl]piperidine-1-carboxamide] | 96% | 100% |  | 4.51 | 4.55
9 | O=C(/C=C/c1csc(C2CCN(C(=O)Cn3nc(C(F)F)cc3C(F)F)CC2)n1)c1ccc(F)cc1Br [Compound I-34] | 84% | 95% | 3.7^[a]; |  | 
10 | O=C(/C=C/c1csc(C2CCN(C(=O)Cn3nc(C(F)F)cc3C(F)F)CC2)n1)c1cc(F)ccc1Cl [Compound I-35] | 89% | 95% | 3.64^[a]; |  | 
11 | CC(CC(=O)c1c(F)cccc1F)c1csc(C2CCN(C(=O)Cn3nc(C(F)F)cc3C(F)F)CC2)n1 (centres unmarked) [Compound I-51] | 100% | 98% |  |  | 
12 | O=C(/C=C/c1csc(C2CCN(C(=O)Cn3nc(C(F)F)cc3C(F)F)CC2)n1)c1cccc2ccccc12 [Compound I-46] | 100% | 95% | 2.84^[a] |  | 
13 | Cc1ccccc1C(=O)/C=C/c1csc(C2CCN(C(=O)Cn3nc(C(F)F)cc3C(F)F)CC2)n1 [Compound I-45] | 100% | 95% | 3.56^[a] |  | 
14 | O=C(/C=C/c1csc(C2CCN(C(=O)Cn3nc(C(F)F)cc3C(F)F)CC2)n1)c1c(Cl)cccc1Cl [Compound I-43] | 100% | 90% | 3.7^[a] |  | 
15 | O=C(CC1CCCCC1)c1csc(C2CCN(C(=O)Cn3nc(C(F)F)cc3C(F)F)CC2)n1 [Compound I-24, 2-[3,5-Bis(difluoromethyl)-1H-pyrazol-1-yl]-1-{4-[4-(cyclohexylacetyl)-1,3-thiazol-2-yl]piperidin-1-yl}ethanone] | 100% | 94% |  |  | 
16 | O=C(/C=C/c1csc(C2CCN(C(=O)Cn3nc(C(F)F)cc3C(F)F)CC2)n1)c1ccccc1Cl [Compound I-42] | 90% | 100% | 3.51^[a] |  | 
17 | O=C(/C=C/c1csc(C2CCN(C(=O)Cn3nc(C(F)F)cc3C(F)F)CC2)n1)C1CCCCC1 [Compound I-44] | 74% | 95% | 3.89^[a] |  | 
18 | CC1CCCCC1C(=O)C=Cc1csc(C2CCN(C(=O)Cn3nc(C(F)F)cc3C(F)F)CC2)n1 (mixture of isomers) [Compound I-50] | 93% | 95% | 4.11^[a] |  | 
19 | O=C(/C=C/c1csc(C2CCN(C(=O)Cn3nc(C(F)F)cc3C(F)F)CC2)n1)c1c(F)cc(F)cc1F [Compound I-57] | 91% | 98% | 3.51^[a]; |  | 
20 | O=C(/C=C/c1csc(C2CCN(C(=O)Cn3nc(C(F)F)cc3C(F)F)CC2)n1)c1c(F)cccc1F [Compound I-22, (2E)-3-[2-(1-{[3,5-Bis(difluoromethyl)-1H-pyrazol-1-yl]acetyl}piperidin-4-yl)-1,3-thiazol-4-yl]-1-(2,6-difluorophenyl)prop-2-en-1-one] | 100% | 100% |  | 3.35 | 
